What was measured:
normal fibroblasts = test: Telomere length in treated fibroblasts; format: cell-based
Excerpt: Based on results obtained on tissue cultured cells (increased RLS) and an increase in the numbers of HSC surrogate cells (LTC-IC or CFU), the inventors set their future goal to develop a novel pharmacological treatment for AA patients and potentially for other BMF. They have examined the most prominent features of cellular aging: telomere shortening, mitochondrial dysfunction or decline in respiratory capacity and shift in intracellular redox balance toward more oxidized environment. […] The only persistent effect of VA was considerable reduction in global protein disulfide bonds (up to 30%) detected by Elman's reagent or direct labelling of reduced sulfhydryl groups with biotin-switch assay (FIG. 3A). That brought the reductive hypothesis to the inventors' attention. The redox potential is controlled by sophisticated set of diverse enzymes and this system is fed from generation of NADPH by multiple hydrogenases (FIG. 3B). Among them, the glucose-6-phosphate dehydrogenase (G6P) is most important, because it controls the rate limiting step of pentose phosphate pathway. The other important dehydrogenases are isocytrate dehydrogenases (cytoplasmic and mitochondrial, IDH1/2) and 6-phosphogluconate dehydrogenase (6PG). The next anti-oxidant cellular protection layer is thioredoxin and glutathione systems (FIG. 3B). The first one is composed of thioredoxin reductase (TrxR) and thioredoxin. […]

[1] = test system: normal human fibroblasts (NHDF) and stromal cells isolated from human normal bone marrow; test: Replicative lifespan (RLS) of normal cells in tissue culture; format: cell-based; details: normal fibroblasts and mesenchymal cells
Excerpt: (§1) FIGS. 1A-1I provide graphs and images showing a new high throughput method for simultaneous detection of senescence associated SAβG activity and ATP in culture of normal pre-aged cells identified two potent anti-aging scaffolds. (A). General schema of HTS. (B). […] (C). Structures and corresponding tautameric forms of lead compounds. (D) Evaluation of possible genotoxic effect of experimental drugs in modified Ames test. 4-Nitroquinoline 1-oxide (4NQO) was used as a positive control. […] The general schema of RLS measurement in different cell types. (F) VA and N2N1 considerably extend RLS of normal human fibroblasts (NHDF) and stromal cells isolated from human normal bone marrow. (G). […] (I). Upper panel: Morphological appearance of NHDF at late passages with or without treatment. Lower panel: Cells were also fixed in para-formaldehyde and stained to detect SAβG.
(§2) The inventors developed a new high-throughput screening (HTS) method for identification of anti-aging drugs (FIG. 1). The novel method was specifically designed for simultaneous detection of β-galactosidase activity in cell lysate followed by ATP detection by standard luciferase based assay. […] Altogether, the procedure allowed a simultaneous quantifiable detection of senescence associated β-galactosidase (SAβG) activity and evaluation of ATP level as a sign of improved proliferative capacity or cytotoxicity. […]

[2] = test system: bone marrow cells from aplastic anemia patients; test: Colony assay, aplastic anemia bone marrow; format: cell-based, human; details: tissue culture derived from aplastic anemia patients
Excerpt: While performing a multidrug screen for the agents that could simultaneously decrease senescence and overcome proliferative block in pre-senescent mesenchymal cells, the inventors identified two promising lead compounds violuric acid (VA) and 1-naphthoquinone-2-monoxime (N2N1). […] In term of hematopoietic stem cells (HSC) these agents prolonged the availability of HSC in methylcellulose (replicative/serial re-plating) experiments, long-term culture initiating cell assays (LTC-IC) and increased the performance of HSC in a competitive repopulation assay, the CD45.1/2 model. Furthermore, the inventors observed colonies formation in methylcellulose colony assay, after application of these drugs to the mononucleocyte fraction of bone marrow isolated from the patients diagnosed with severe AA. […] These compounds belong to a family of redox catalysts with unique chemical structure that shares a combined electrophile-nucleophile potential, a feature that renders these molecules effective anti-aging treatment in various biological model systems.
FIGS. 2A-2G provide graphs and images showing N2N1 and VA support HSC/progenitors populations under pressure of differentiation and tissue culture stress in vitro and in vivo. General schema of CFU (A) and LTC-IC assays (B). […] Representative result of three NBM is shown. (D) The morphology of cells at the end of 1st part of LTC-IC assay is shown. […]

cancer cell lines = test: Treatment of cancer cell lines; format: cell-based
NHDF = test: SAβG staining of NHDF at late passages; format: cell-based, human
Excerpt: as §1, §2

fibroblasts = test: Gene expression analysis of fibroblasts (RNAseq); format: cell-based; details: RNAseq exome

Row | SMILES | telomere length (normal fibroblasts) | expansion above regular replicative life span [1] [doublings] | colonies formation [2] | toxicity / proliferation (cancer cell lines) | number of SAβG positive cells (NHDF) | expression of stem cell markers (fibroblasts)
1 | O=C1/C(=N/O)C=Cc2ccccc21 [N2N1, 1-naphthoquinone-2-monoxime] | maintenance of telomere length was observed | ~25 | promote colonies formation | partially toxic | substantially decreased | revealed the expression of some stem cell markers
2 | O=C1NC(=O)C(=NO)C(=O)N1 [VA, 2,4,5,6(1H,3H)-pyrimidine-tetrone 5-oxime] | maintenance of telomere length was observed | ~25 | promote colonies formation | neither toxic nor pro-proliferative | substantially decreased | revealed the expression of some stem cell markers
